# Experiments:
# [1] = system: AMBEL (Ambrosia artemisifolia); assay: Postemergence herbicidal evaluation; type: in vivo, L.; conditions: for AMBEL herbicidal rating: postemergence
# In short: (§1)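 Seedlings grown for about two weeks were sprayed postemergence and then kept under standard greenhouse care. Injury was rated visually 4–5 weeks after treatment on a 0–9 scale against untreated controls, and ratings from repeat tests were averaged.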
# [2] = system: CASOB (Cassia obtusifolia); assay: Postemergence herbicidal evaluation; type: in vivo, L.; conditions: for CASOB herbicidal rating: postemergence
# In short: as §1
# [3] = system: CHEAL (Chenopodium album); assay: Postemergence herbicidal evaluation; type: in vivo, L.; conditions: for CHEAL herbicidal rating: postemergence
# In short: as §1
# [4] = system: TRZAWR (Wheat, Winter, cv Riband); assay: Postemergence herbicidal evaluation; type: in vivo, Triticum aestivum; conditions: for TRZAWR herbicidal rating: postemergence
# In short: as §1
# [5] = system: ABUTH (Abutilon theophrasti); assay: Preemergence herbicidal evaluation; type: in vivo, Medic.; conditions: rated 4-5 weeks after treatment
# [6] = system: GLXMAW (Soybean, Williams); assay: Preemergence herbicidal evaluation; type: in vivo, Glycine max, (L.) Merr. cv Williams; conditions: rated 4-5 weeks after treatment
# [7] = system: TRZAWR (Wheat, Winter, cv Riband); assay: Preemergence herbicidal evaluation; type: in vivo, Triticum aestivum; conditions: rated 4-5 weeks after treatment
# In short: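 Seeds mixed with potting soil were planted atop about one inch of soil, then sprayed with test compound in aqueous acetone. Cups were kept in the greenhouse and rated visually 4–5 weeks after treatment on a 0–9 scale against untreated control.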
# [8] = system: ZEAMX (Corn, Field); assay: Preemergence herbicidal evaluation; type: in vivo, Zea mays, L.; conditions: rated 4-5 weeks after treatment
# [9] = system: CYPSE (Cyperus serotinus); assay: Flooded paddy, preemergence weed control; type: in vivo, Rottb.; conditions: rated 3-4 weeks after treatment, 0-9 rating scale
# In short: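 Seeds or propagules were planted 0.5 cm deep in silt loam and flooded to 1.5–3 cm. Compounds in 50/50 v/v aqueous/acetone were pipetted into the flood water at about 0.0080 to 0.1250 kg/ha. After 3–4 weeks in the greenhouse, effect was rated visually on a 0–9 scale versus untreated control.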
SMILES,"Postemergence herbicidal rating, AMBEL ([1]; rate 0.0320 kg/ha)","Postemergence herbicidal rating, AMBEL ([1]; rate 0.0620 kg/ha)","Postemergence herbicidal rating, CASOB ([2]; rate 0.0320 kg/ha)","Postemergence herbicidal rating, CASOB ([2]; rate 0.0620 kg/ha)","Postemergence herbicidal rating, CHEAL ([3]; rate 0.0320 kg/ha)","Postemergence herbicidal rating, CHEAL ([3]; rate 0.0620 kg/ha)","Postemergence herbicidal rating, TRZAWR ([4]; rate 0.0320 kg/ha)","Postemergence herbicidal rating, TRZAWR ([4]; rate 0.0620 kg/ha)",Preemergence herbicidal rating ABUTH ([5]; Rate 0.0620 kg/ha),Preemergence herbicidal rating ABUTH ([5]; Rate 0.1250 kg/ha),Preemergence herbicidal rating ABUTH ([5]; Rate 0.2500 kg/ha),Preemergence herbicidal rating GLXMAW ([6]; Rate 0.0620 kg/ha),Preemergence herbicidal rating GLXMAW ([6]; Rate 0.1250 kg/ha),Preemergence herbicidal rating GLXMAW ([6]; Rate 0.2500 kg/ha),Preemergence herbicidal rating TRZAWR ([7]; Rate 0.0620 kg/ha),Preemergence herbicidal rating TRZAWR ([7]; Rate 0.1250 kg/ha),Preemergence herbicidal rating TRZAWR ([7]; Rate 0.2500 kg/ha),Preemergence herbicidal rating ZEAMX ([8]; Rate 0.0620 kg/ha),"herbicidal rating, CYPSE ([9]; rate 0.0320 kg/ha)","herbicidal rating, CYPSE ([9]; rate 0.1250 kg/ha)",other results
"C[C@@H]1OC(c2nsc3ccc(-n4c(=O)cc(C(F)(F)F)n(C)c4=O)cc23)O[C@@H]1C (stereo partly drawn) [Compound 47, 3-[3-[(4R,5S)-4,5-dimethyl-1,3-dioxolan-2-yl]-1,2-benzisothiazol-5-yl]-1-methyl-6-(trifluoromethyl)uracil]",9.0,9.0,6.0,9.0,9.0,9.0,5.0,6.0,9.0,9.0,9.0,7.0,8.0,9.0,6.0,8.0,8.0,7.5,9.0,9.0,Preemergence herbicidal rating ZEAMX ([8]; Rate 0.1250 kg/ha): 8.0; Preemergence herbicidal rating ZEAMX ([8]; Rate 0.2500 kg/ha): 9.0
"Cc1csc(-c2nsc3ccc(-n4c(=O)cc(C(F)(F)F)n(C)c4=O)cc23)n1 [Compound 7, 1-methyl-3-[3-(4-methyl-2-thiazolyl)-1,2-benzisothiazol-5-yl]-6-(trifluoromethyl)uracil]",2.0,4.0,0.0,0.0,4.0,4.0,4.5,5.5,,,,,,,,,,,0.0,0.0,"Postemergence herbicidal rating, AMBEL ([1]; rate 0.1250 kg/ha): 9.0; Postemergence herbicidal rating, CASOB ([2]; rate 0.1250 kg/ha): 3.0; Postemergence herbicidal rating, CHEAL ([3]; rate 0.1250 kg/ha): 9.0; Postemergence herbicidal rating, TRZAWR ([4]; rate 0.1250 kg/ha): 6.0; ABUTH preemergence herbicidal rating ([5]; Rate 0.0620 kg/ha): 9.0; ABUTH preemergence herbicidal rating ([5]; Rate 0.1250 kg/ha): 9.0; ABUTH preemergence herbicidal rating ([5]; Rate 0.2500 kg/ha): 9.0; GLXMAW preemergence herbicidal rating ([6]; Rate 0.0620 kg/ha): 0.0; GLXMAW preemergence herbicidal rating ([6]; Rate 0.1250 kg/ha): 0.0; GLXMAW preemergence herbicidal rating ([6]; Rate 0.2500 kg/ha): 2.0; TRZAWR preemergence herbicidal rating ([7]; Rate 0.0620 kg/ha): 0.0; TRZAWR preemergence herbicidal rating ([7]; Rate 0.1250 kg/ha): 2.0; TRZAWR preemergence herbicidal rating ([7]; Rate 0.2500 kg/ha): 2.0; ZEAMX preemergence herbicidal rating ([8]; Rate 0.0620 kg/ha): 0.0; ZEAMX preemergence herbicidal rating ([8]; Rate 0.1250 kg/ha): 4.0; ZEAMX preemergence herbicidal rating ([8]; Rate 0.2500 kg/ha): 8.0; herbicidal rating, CYPSE ([9]; rate 0.0080 kg/ha): 0.0"
"CC1COC(c2nsc3ccc(-n4c(=O)cc(C(F)(F)F)n(C)c4=O)cc23)O1 (centres unmarked) [Compound 57, 1-methyl-3-[3-(4-methyl-1,3-dioxolan-2-yl)-1,2-benzisothiazol-5-yl]-6-(trifluoromethyl)uracil]",,,,,,,,,9.0,9.0,9.0,9.0,9.0,9.0,8.0,8.0,9.0,7.5,9.0,9.0,AMBEL herbicidal rating ([1]; rate 0.0320 kg/ha): 9.0; AMBEL herbicidal rating ([1]; rate 0.0620 kg/ha): 9.0; CASOB herbicidal rating ([2]; rate 0.0320 kg/ha): 7.0; CASOB herbicidal rating ([2]; rate 0.0620 kg/ha): 9.0; CHEAL herbicidal rating ([3]; rate 0.0320 kg/ha): 9.0; CHEAL herbicidal rating ([3]; rate 0.0620 kg/ha): 7.0; TRZAWR herbicidal rating ([4]; rate 0.0320 kg/ha): 4.5; TRZAWR herbicidal rating ([4]; rate 0.0620 kg/ha): 5.0; Preemergence herbicidal rating ZEAMX ([8]; Rate 0.1250 kg/ha): 8.0; Preemergence herbicidal rating ZEAMX ([8]; Rate 0.2500 kg/ha): 9.0
